Assay results as given in publication PMC4862498, “PI4 Kinase Is a Prophylactic but Not Radical Curative Target in Plasmodium vivax-Type Malaria Parasites” (Antimicrobial Agents and Chemotherapy, 2016).
Values joined by “and” are separate entries in the source; they are usually repeats but may differ in a detail not shown here. Equal values may be shown once.

What was measured:
[1] = tested on: P. cynomolgi hypnozoites in primary rhesus hepatocytes; test: In vitro liver-stage drug assay with P. cynomolgi, small forms (hypnozoites); format: cell-based, Plasmodium cynomolgi; details: compound exposure 6 days, mean of several (9) independent assays, read-out: IC50 against hypnozoites (small forms)
Procedure: (§1) In vitro infections of primary rhesus hepatocytes with P. cynomolgi sporozoites were performed according to methods described previously by Zeeman et al. ([10]). At day 6 postinfection (p.i.), the assay mixtures were fixed and stained with anti-P. cynomolgi Hsp70 rabbit antiserum and a fluorescein isothiocyanate (FITC)-labeled secondary antibody (goat anti-rabbit). Plates were analyzed with the Operetta high-content imaging system, differentially counting hypnozoites and developing extraerythrocytic forms (EEFs), based on parasite size ([10]).
(§2) In vitro activity against P. cynomolgi liver stages was determined for both compounds. The numbers of small (hypnozoites) and large (developing EEFs) parasites were determined by using Operetta and image analysis of primary rhesus hepatocyte cultures infected with P. cynomolgi sporozoites and exposed to the compound for 6 days ([10]). […] IC50s were determined by using the least-squares nonlinear regression method (Prism) for small and large parasites. Data from several independent experiments were used to calculate the IC50s for the two compounds.

[2] = tested on: P. cynomolgi developing EEFs (liver schizonts) in primary rhesus hepatocytes; test: In vitro liver-stage drug assay with P. cynomolgi, large forms (developing EEFs / liver schizonts); format: cell-based, Plasmodium cynomolgi; details: compound exposure 6 days, mean of several (9) independent assays, read-out: IC50 against developing EEFs / liver schizonts (large forms)
Procedure: as §1, §2

[3] = Clinical chemistry, hematology, weight and clinical observation of treated monkeys; format: in vivo, rhesus macaques (Macaca mulatta); details: rhesus monkey, in vivo
Procedure: Monkeys were treated according to the schedule shown in Table 1 (stratification of treatment groups is given in the supplemental material). During treatment, monkeys were weighed daily and received the compound via gavage, followed by gastric feeding (weight change during treatment is shown in Table S6 in the supplemental material). Monkeys in the prophylaxis groups (groups 691-proph and 599-proph) were treated ∼20 min after the i.v. sporozoite injection. The other monkeys were treated when all the monkeys in the experiment (except those in the prophylaxis group) were blood-stage patent (at day 11 p.i.). To kill the blood-stage parasites, all monkeys received a 5-day treatment of 7.5 mg/kg of body weight of chloroquine (CQ) (intramuscular [i.m.] injection), during compound dosing. KDU691 was formulated in 0.5% methylcellulose and 0.5% Tween 80 in water. LMV599 was formulated as a solid dispersion in a solution containing 5.6% (wt/wt) Tween 80–44.4% hydroxypropyl methylcellulose (HPMC) E3–38.9% Soluplus–11.1% vitamin E D-alphatocopheryl polyethylene glycol 1000 succinate (TPGS).
Blood samples were collected for clinical evaluation and pharmacokinetic (PK) analysis (see Table S2 in the supplemental material).
When the first relapse was observed, monkeys of the KDU691 experiment were radically cured with primaquine (PQ)/CQ (oral administration of 1.8 mg/kg PQ for 14 days together with i.m. administration of 7.5 mg/kg CQ for the first five days of PQ treatment) to cure both blood stage and liver stage parasites, […]
The monkeys of the LMV599/PQ experiment were cured with a five day CQ treatment (7.5 mg/kg, i.m. administration) at the first relapse and were monitored until the second relapse after which they were cured with CQ (7.5 mg/kg, intramuscular (i.m.) for five days) plus PQ (1.8 mg/kg for 14 days).
Table S2: PK and clinical blood sampling schedule in monkeys.
Groups are named 691 for KDU691 and 599 for LMV599 treatment groups, followed by -C for control group (no compound), -proph for prophylactic treatment (treated immediately after infection), and -RC for radical cure treatment (treated when blood stage positive). […]
the face and chest areas were very yellow. Therefore the 691-RC group (treated from d11 to d15 pi) was monitored by daily clinical chemistry analysis during dosing to be compared with untreated 691-C. […]
sampling of the single dose prophylaxis group at day 0, 1, 7 and 100. The lack of aberrant clinical […]
as radical cure compound, during which also clinical sampling was performed daily. a: only clinical chemistry samples were taken. *: t = 24 sample was taken only on the 1st day of dosing.
Group name Clin. chem PK sampling PK time points
Hematology (h post dosing)
691-proph 1st and 5th day of dosing t = 0, 1, 4, 6 and 24*
691-RC Dailya 1st and 5th day of dosing t = 0, 1, 4, 6 and 24* […]
599-RC Daily 1st and 4th day of dosing t = 0, 1, 2, 4 and 24
Clinical chemistry and hematology
For the clinical analysis serum from 1 mL of clotted blood was analysed using the Cobas Integra 400 plus fully automated chemistry analyser. The following clinical parameters were determined: Alkaline phosphatase; Alanine Aminotransferase; Albumin: Aspartate aminotransfeasr; Bilirubin; Calcium; Cholesterol; Creatine kinase; Creatinine; C-reactive protein: Iron; Phosphate; Gamma-glutamyl transpeptidase; Glucose; Hemoglobin; Potassium; Lactate dehydrogenase; Sodium; Total protein; Urea Haematological parameters were determined from 1 mL EDTA-blood with a Sysmex XT-2000iV automated system. The following hematological parameters were determined: Basophilic granulocytes; Eosinophilic granulocytes; Erythrocytes; Hematocrit; Leucocytes; Leucocyte differentiation; Lymphocytes; Mean corpusculair hemoglobin; Mean corpusculair hemoglobin concentration; Mean corpusculair volume; Neutrophilic granulocytes; Red cell distribution width; Thrombocytes […]
Liver tissue samples were excised, dipped in PBS, gently blotted with absorbent paper, dried, weighed and stored at -20 °C until further analysis. […]

[4] = tested on: Plasmodium berghei luciferase sporozoites; parameters: method as in PMID 25147620; details: single dose of 7.5 mg/kg after sporozoite infection; cited from earlier work

With CNC(=O)c1ccc(-c2cnc3cnc(C(=O)N(C)c4ccc(Cl)cc4)cn23)cc1 [KDU691] the IC50 [1] was 180 ± 210 nM, the IC50 [2] was 61 nM and 60 nM and the “weight loss, % of the initial weight” value [3] was 3.5%. For the same molecule, the “causal prophylactic protection in mice” value [4] was “complete protection”.
